For `*C(=O)Nc1ccc(C2(c3ccc(N4C(=O)c5ccc(*)cc5C4=O)cc3)CCC(CC)CC2)cc1` (repeat unit), the glass transition temperature is 312.00 °C. `*C(=O)c1cc(C(=O)c2ccc3c(c2)C(=O)N(c2cccc(N4C(=O)c5ccc(*)cc5C4=O)c2)C3=O)cc(C(C)(C)C)c1` (repeat unit) had a glass transition temperature of 264.50 °C.

In turn, `*C(=O)c1ccc2c(c1)C(=O)N(c1ccc(-c3cc(-c4ccc(OC)cc4)cc(-c4ccc(N5C(=O)c6ccc(*)cc6C5=O)cc4)n3)cc1)C2=O` (repeat unit) came in with a glass transition temperature of 331.00 °C. On to `*C(=O)c1ccc2c(c1)C(=O)N(c1ccc(-c3cc(-c4ccc(OCCCC#N)cc4)cc(-c4ccc(N5C(=O)c6ccc(*)cc6C5=O)cc4)n3)cc1)C2=O` (repeat unit), for which the glass transition temperature stood at 342.00 °C.

Regarding `*C(=O)c1ccc2c(c1)C(=O)N(c1ccc(-c3ccc(N4C(=O)c5ccc(*)cc5C4=O)c(C)c3)cc1C)C2=O` (repeat unit), the glass transition temperature was found to be 365.00 °C. With `*C(=O)c1ccc2c(c1)C(=O)N(c1ccc(C(C)(C)c3ccc(C(C)(C)c4ccc(N5C(=O)c6ccc(*)cc6C5=O)cc4)cc3)cc1)C2=O` (repeat unit) the figure was 322.00 °C. With `*C(=O)c1ccc2c(c1)C(=O)N(c1ccc3c(c1)C(=O)c1cc(N4C(=O)c5ccc(*)cc5C4=O)ccc1-3)C2=O` (repeat unit) the figure was 331.00 °C; with `*C(=O)c1ccc2c(c1)C(=O)N(c1cccc(C(=O)c3ccc(Cc4ccc(C(=O)c5cccc(N6C(=O)c7ccc(*)cc7C6=O)c5)cc4)cc3)c1)C2=O` (repeat unit), 260.50 °C. For `*C(=O)c1ccc2c(c1)C(=O)N(c1cccc(C(=O)c3ccc(Oc4ccc(N5C(=O)c6ccc(*)cc6C5=O)cc4)cc3)c1)C2=O` (repeat unit) the value was 251.00 °C; for `*C(=O)c1ccc2c(c1)C(=O)N(c1cccc(Cc3ccc(Cc4cccc(N5C(=O)c6ccc(*)cc6C5=O)c4)cc3)c1)C2=O` (repeat unit), 240.00 °C. Regarding `*CCCCCC(=O)Oc1ccc(C(C)(C)c2ccc(C(C)(C)c3ccc(OC(=O)c4ccc5c(c4)C(=O)N(*)C5=O)cc3)cc2)cc1` (repeat unit), the glass transition temperature is 104.00 °C. For `*CCCCCCCCCCCC(=O)Oc1ccc(C(C)(C)c2ccc(OC(=O)c3ccc4c(c3)C(=O)N(*)C4=O)cc2)cc1` (repeat unit), the glass transition temperature came to 93.00 °C. For `*CCCCCCN1C(=O)C(=O)N(c2ccc(CCc3ccccc3N3C(=O)C(=O)N(*)C3=O)cc2)C1=O` (repeat unit) the value was 137.00 °C. For `*CNC(=O)OCC(OC(=O)NCc1ccc(C(CCC)c2ccc(*)o2)o1)c1ccco1` (repeat unit) the value was 43.00 °C; for `*CNC(=O)OCc1ccc(COCc2ccc(COC(=O)NCc3ccc(C(C)(C)c4ccc(*)o4)o3)o2)o1` (repeat unit), 39.00 °C. With `*Cc1ccc(C(C)c2ccc(CN3C(=O)c4ccc(Oc5ccc6c(c5)C(=O)N(*)C6=O)cc4C3=O)o2)o1` (repeat unit) the figure was 129.00 °C; with `*Nc1ccc(C(C)(C)c2ccc(C(C)(C)c3ccc(Nc4ccc(C(O)(c5ccccc5)c5ccc(C(O)(c6ccccc6)c6ccc(*)cc6)cc5)cc4)cc3)cc2)cc1` (repeat unit), 177.00 °C. With `*Nc1ccc(C(C)(C)c2ccc(NC(=O)c3cc(C(*)=O)cc(N4C(=O)C5C6CCC(C6)C5C4=O)c3)cc2)cc1` (repeat unit), the glass transition temperature is 311.00 °C. With `*Nc1ccc(C(C)(C)c2ccc(NC(=O)c3cc(C(*)=O)cc(N4C(=O)C5CC=CCC5C4=O)c3)cc2)cc1` (repeat unit) the figure was 308.00 °C. With `*Nc1ccc(C(C)(C)c2cccc(C(C)(C)c3ccc(NC(=C(C#N)C#N)c4ccc(C(*)=C(C#N)C#N)cc4)cc3)c2)cc1` (repeat unit) the figure was 208.00 °C; with `*Oc1cc(C(C)(C)C)c(Oc2ccc(C(=O)Nc3ccc(C(C)(C)c4ccc(NC(=O)c5ccc(*)cc5)c(C)c4)cc3C)cc2)cc1C(C)(C)C` (repeat unit), 275.00 °C; with `*Oc1ccc(C(C)(C)c2ccc(OC(=O)CCCCC(*)=O)c(C)c2)cc1C` (repeat unit), 33.50 °C. For `*Oc1ccc(C(CC)(c2ccccc2)c2ccc(OC(=O)CCCCCCCCC(*)=O)cc2)cc1` (repeat unit) the value was 88.00 °C; for `*Oc1ccc(C2(c3ccc(OC(=O)CCC(*)=O)cc3)c3cc(OC)ccc3-c3ccc([N+](=O)[O-])cc32)cc1` (repeat unit), 230.00 °C; for `*Oc1ccc(C2(c3ccc(OC(=O)CCCC(*)=O)cc3)c3cc(OC)ccc3-c3ccc([N+](=O)[O-])cc32)cc1` (repeat unit), 197.00 °C. `*Oc1ccc(Oc2ccc(Nc3ccc(S(=O)(=O)c4ccc(Nc5ccc(*)cc5)cc4)cc3)cc2)cc1` (repeat unit) registered a glass transition temperature of 144.60 °C. For `*c1ccc(-c2cc(-c3ccc(OCCCC#N)cc3)cc(-c3ccc(N4C(=O)c5ccc(-c6ccc7c(c6)C(=O)N(*)C7=O)cc5C4=O)cc3)n2)cc1` (repeat unit) the value was 360.00 °C. `*c1ccc(-c2cc(C(C)(C)C)c(Oc3ccc(N4C(=O)c5ccc6c7c(ccc(c57)C4=O)C(=O)N(*)C6=O)cc3C(F)(F)F)c(C(C)(C)C)c2)cc1` (repeat unit): the glass transition temperature is 456.00 °C. With `*c1ccc(-c2cc(C(C)(C)C)c(Oc3ccc(N4C(=O)c5ccc(-c6ccc7c(c6)C(=O)N(*)C7=O)cc5C4=O)cc3C(F)(F)F)c(C(C)(C)C)c2)cc1` (repeat unit) the figure was 389.00 °C; with `*c1ccc(-c2ccc3c(c2)C(CCCCCCCC)(CCCCCCCC)c2cc(-c4ccc(N(*)c5ccc(N(c6ccc(C(C)(C)c7ccccc7)cc6)c6ccc(C(C)(C)c7ccccc7)cc6)cc5)cc4)ccc2-3)cc1` (repeat unit), 137.00 °C; with `*c1ccc(C(C)(C)c2ccc(C(C)(C)c3ccc(N4C(=O)c5ccc(Oc6ccc7cc(Oc8ccc9c(c8)C(=O)N(*)C9=O)ccc7c6)cc5C4=O)cc3)cc2)cc1` (repeat unit), 246.00 °C.

In the case of `*c1ccc(C(C)(C)c2ccc(N3C(=O)c4ccc(Oc5ccc6c(c5)C(=O)N(*)C6=O)cc4C3=O)cc2)cc1` (repeat unit), the glass transition temperature was found to be 265.00 °C. For `*c1ccc(C(C)(C)c2ccc(N3C(=O)c4ccc(Oc5ccc6cc(Oc7ccc8c(c7)C(=O)N(*)C8=O)ccc6c5)cc4C3=O)cc2)cc1` (repeat unit) the value was 236.00 °C. For `*c1ccc(C(c2ccc(OCCCC)cc2)c2ccc(N(*)c3ccc(C)cc3)cc2)cc1` (repeat unit) the value was 170.00 °C; for `*c1ccc(CCc2ccccc2N2C(=O)C(=O)N(c3ccc(Cc4ccc(N5C(=O)C(=O)N(*)C5=O)cc4)cc3)C2=O)cc1` (repeat unit), 198.00 °C. With `*c1ccc(Cc2ccc(-n3c(=O)c4cc5c(=O)n(*)c(=O)c5cc4c3=O)cc2)cc1` (repeat unit) the figure was 351.00 °C.

As for `*c1ccc(Cc2ccc(N(c3ccc(C)cc3)c3ccc(-c4ccc(N(*)c5ccc(C)cc5)cc4)cc3)cc2)cc1` (repeat unit), the glass transition temperature turned out to be 183.00 °C. For `*c1ccc(Cc2ccc(N3C(=O)C(C)C(SCCOCCSC4C(=O)N(c5ccc(Cc6ccc(N7C(=O)CC(C)(SCCOCCSC8(C)CC(=O)N(*)C8=O)C7=O)cc6)cc5)C(=O)C4C)C3=O)cc2)cc1` (repeat unit) the value was 105.00 °C; for `*c1ccc(N(c2ccc(C#N)cc2)c2ccc(N3C(=O)c4ccc(Oc5ccc(C(c6ccc(Oc7ccc8c(c7)C(=O)N(*)C8=O)cc6)(C(F)(F)F)C(F)(F)F)cc5)cc4C3=O)cc2)cc1` (repeat unit), 234.00 °C. For `*c1ccc(N(c2ccc(C#N)cc2)c2ccc(N3C(=O)c4ccc(Oc5ccc(C6(c7ccc(Oc8ccc9c(c8)C(=O)N(*)C9=O)cc7)CCCCC6)cc5)cc4C3=O)cc2)cc1` (repeat unit) the value was 243.00 °C; for `*c1ccc(N2C(=O)c3c(c(-c4ccccc4)c(-c4ccc(-c5c(-c6ccccc6)c6c(c(-c7ccccc7)c5-c5ccccc5)C(=O)N(*)C6=O)cc4)c(-c4ccccc4)c3-c3ccccc3)C2=O)cc1` (repeat unit), 466.00 °C; for `*c1ccc(N2C(=O)c3ccc(C(=O)c4ccc5c(c4)C(=O)N(c4ccc6[nH]c(*)nc6c4)C5=O)cc3C2=O)cc1` (repeat unit), 412.00 °C. With `*c1ccc(NC2CC(=O)N(c3ccc(-c4sc(-c5ccc(N6C(=O)CC(Nc7ccc(-c8nc(C#N)c(C#N)nc8*)cc7)C6=O)cc5)c(-c5ccccc5)c4-c4ccccc4)cc3)C2=O)cc1` (repeat unit) the figure was 231.00 °C; with `*c1ccc(Nc2c(F)c(F)c(-c3c(F)c(F)c(Nc4ccc(S(*)(=O)=O)cc4)c(F)c3F)c(F)c2F)cc1` (repeat unit), 332.00 °C; with `*c1ccc(Nc2ccc(C(c3ccc(Nc4ccc(S(*)(=O)=O)cc4)cc3)(C(F)(F)F)C(F)(F)F)cc2)cc1` (repeat unit), 145.00 °C. Turning to `*c1ccc(Nc2ccc(C3(c4ccc(Nc5ccc(S(*)(=O)=O)cc5)c(F)c4)c4ccccc4-c4ccccc43)cc2F)cc1` (repeat unit), the glass transition temperature turned out to be 145.00 °C. With `*c1ccc2c(c1)C(=O)N(c1ccc(-c3cc(-c4ccc(OCCCC#N)cc4)cc(-c4ccc(N5C(=O)c6ccc(C(*)(C(F)(F)F)C(F)(F)F)cc6C5=O)cc4)n3)cc1)C2=O` (repeat unit) the figure was 339.00 °C; with `*c1ccc2c(c1)C(=O)N(c1ccc(-c3ccc(N4C(=O)c5ccc(C(*)(C(F)(F)F)C(F)(F)F)cc5C4=O)c(OCCN(CC)c4ccc(C(C#N)=C(C#N)C#N)cc4)c3)cc1OCCN(CC)c1ccc(C(C#N)=C(C#N)C#N)cc1)C2=O` (repeat unit), 222.00 °C. For `*c1ccc2c(c1)C(=O)N(c1cccc(C(C)(C)c3ccc(N4C(=O)c5ccc(C(*)(C(F)(F)F)C(F)(F)F)cc5C4=O)cc3)c1)C2=O` (repeat unit) the value was 260.00 °C.

Values taken from the PolyMetriX glass transition set.
